The source of these data is patent US5858692A, “Polychlorinated biphenyls (PCB) immunoassay method, its components and a kit for use in performing the same” (ENSYS, Inc., priority 1995, dated 1999).

This assay deals with monoclonal F40-11G6 antibody (anti-PCB monoclonal antibody). The assay is described as follows: 1 ppm PCB immunoassay (competitive ELISA), cross-reactivity of compounds found at PCB sites or of similar structure. It is filed as binding, Balb/c mice. The note with it: for PERCENT CROSS-REACTIVITY: calculated percent cross-reactivity in the 1 ppm PCB immunoassay; for CONCENTRATION GIVING A POSITIVE RESULT; SOIL EQUIVALENT / CON[…] A POSITIVE RESULT; SOIL EQUIVALENT: positive compared to the kit standard (AROCLOR 1248, 0.7 ppm) in the 1 ppm PCB immunoassay. The method, then:
The immunoassay of the present invention is performed according to the following procedure. Monoclonal anti-PCB antibody is immobilized in an assay vessel, or other solid support, preferably to the bottom of a polystyrene tube, at a concentration, of from 0.005 to 20 μg/tube, preferably 0.1 to 0.4 μg/tube. The concentration and affinity of the antibody for the sample molecules and reporter reagent molecules directly influences the overall sensitivity of the final method.
Antibody coated tubes were prepared by passively coating polystyrene (12×75 mm, NUNC) tubes with the monoclonal F40-11G6 antibody diluted in PBS and incubating overnight.
10 g of a soil sample were placed in an extraction vial containing 20 mL of methanol and 5 steel pellets (6mm) and the vial and its contents shaken for 1 minute to disperse the soil particles and extract the PCB. The sample was then filtered to clarify the sample using a filter of glass fiber and 0.45μ Teflon. 45 uL of the clarified filtrate sample was mixed with 955 μl of 10 mM PBS (pH=7.4) and the resulting mixture added to lyophilized enzyme conjugate reagent (0.3 μg) and mixed. At the same time, 2×45 uL of the AROCLOR 1248 standard are similarly treated. The sample and the two standards were then poured into three identical antibody coated tubes, respectively, and the resulting solution mixed. The resulting solution was incubated for 10 minutes at ambient temperature and then washed 4× with a wash buffer (detergent-saline solution). 250 uL of tetramethylbenzidene solution (KP Laboratories, Cat. No. 50-76-02) was added along with 250 uL of hydrogen peroxide solution (KPL, Cat. No. 50-65-02) and the resultant solution mixed. After incubating for 2.5 minutes the color development reaction was stopped with 250 uL of stop solution (1M sulfuric acid).
The optical density (OD) of the test sample was compared to the OD of the AROCLOR 1248 standard (0.7 ppm) which was tested simultaneously with the sample. If the sample OD is less than the standard OD, the sample contains greater than 1 ppm PCBs. If the sample OD is greater than the standard OD, the sample contains less than 1 ppm PCBs. Other concentration ranges can be assessed by diluting the test samples with suitable diluents, as long as they are non-reactive with the components of the assay.
These compounds were tested for their reactivity with the present 1 ppm PCB immunoassay. […] Overall, the compounds were each less than 1% cross-reactive, with one exception at 2%, indicating high-specificity for PCBs in the present method.

Bounds are passed on as bounds.

On to `Clc1ccc(Cl)c(Cl)c1` [1,2,4-TRICHLOROBENZENE], for which the “PERCENT CROSS-REACTIVITY” value was < 1% and the “CONCENTRATION GIVING A POSITIVE RESULT; SOIL EQUIVALENT” value (“CONCENTRATION GIVING A POSITIVE RESULT” for short) was 100-1,000 PPM.
For `Clc1cccc2ccccc12` [1-CHLORONAPHTHALENE] the same measures were < 0.01% and > 10,000 PPM.
As for `Clc1cc(Cl)c(-c2ccc(-c3ccccc3)cc2)c(Cl)c1` [2,4,6-TRICHLOR-p-TERPHENYL], the “PERCENT CROSS-REACTIVITY” value is listed as < 0.01% and the “CONCENTRATION GIVING A POSITIVE RESULT” value is > 10,000 PPM.
Taken in the same sequence, the figures for `Oc1c(Cl)cc(Cl)c2ccccc12` [2,4-DICHLORO-1-NAPTHOL] were 2% and 50 PPM.
Taken in the same sequence, the figures for `O=S(=O)(Oc1ccc(Cl)cc1Cl)c1ccccc1` [2,4-DICHLOROPHENYL BENZENESULFONATE] were < 1% and 100-1,000 PPM.
Turning to `O=C(O)COc1ccc(Cl)cc1Cl` [2,4-D], the “PERCENT CROSS-REACTIVITY” value is listed as < 0.1% and the “CONCENTRATION GIVING A POSITIVE RESULT” value was 1,000-10,000 PPM.
`Clc1c2ccccc2c(Cl)c2ccccc12` [9,10-DICHLOROANTHRACENE, 9,10-DICHLORO-ANTHRACENE]: the “PERCENT CROSS-REACTIVITY” value is given as < 0.01% and the “CONCENTRATION GIVING A POSITIVE RESULT” value is > 10,000 PPM.
Turning to `c1ccccc1` [BENZENE], the “PERCENT CROSS-REACTIVITY” value was < 0.01% and the “CON[…] A POSITIVE RESULT; SOIL EQUIVALENT” value is on record as > 10,000 PPM.
As to `COC(=O)c1cc(Oc2ccc(Cl)cc2Cl)ccc1[N+](=O)[O-]` [BIFENOX], the “PERCENT CROSS-REACTIVITY” value is < 1% and the “CONCENTRATION GIVING A POSITIVE RESULT” value was 100-1,000 PPM.
Taken in the same sequence, the figures for `Clc1c(Cl)c(Cl)c(Cl)c(Cl)c1Cl` [HEXACHLOROBENZENE] were < 0.01% and > 10,000 PPM.
As to `ClCCl` [METHYLENE CHLORIDE], the “PERCENT CROSS-REACTIVITY” value was < 0.01% and the “CON[…] A POSITIVE RESULT; SOIL EQUIVALENT” value was > 10,000 PPM.
Consider `c1ccc2ccccc2c1` [NAPHTHALENE], for which the “PERCENT CROSS-REACTIVITY” value is < 0.01% and the “CONCENTRATION GIVING A POSITIVE RESULT” value was > 10,000 PPM.
For the compound `Clc1ccc(C(c2ccccc2Cl)C(Cl)(Cl)Cl)cc1` (centres unmarked) [O,P-DDT], the “PERCENT CROSS-REACTIVITY” value is given as < 0.01% and the “CONCENTRATION GIVING A POSITIVE RESULT” value is > 10,000 PPM.
Taken in the same sequence, the figures for `Clc1cc(Cl)c(Cl)c(Cl)c1Cl` [PENTACHLOROBENZENE] were < 0.01% and > 10,000 PPM.
For `Oc1c(Cl)c(Cl)c(Cl)c(Cl)c1Cl` [PENTACHLOROPHENOL] the same measures were < 0.01% and > 10,000 PPM.
Consider `CC(Oc1cc(Cl)c(Cl)cc1Cl)C(=O)O` (centres unmarked) [SILVEX], for which the “PERCENT CROSS-REACTIVITY” value is on record as < 1% and the “CONCENTRATION GIVING A POSITIVE RESULT” value is reported as 100-1,000 PPM.
Taken in the same sequence, the figures for `O=S(=O)(c1ccc(Cl)cc1)c1cc(Cl)c(Cl)cc1Cl` [TETRADIFON] were < 10% and 10-100 PPM.
For `ClC=C(Cl)Cl` [TRICHLOROETHYLENE] the same measures were < 0.01% and > 10,000 PPM.
XYLENES: the “PERCENT CROSS-REACTIVITY” value is listed as < 0.01% and the “CONCENTRATION GIVING A POSITIVE RESULT” value is given as > 10,000 PPM.
